Source: US11053204B2, “Pyrimidinyloxy benzene derivatives as herbicides” (FMC Corporation, priority 2015, dated 2021)

Key:
Type in all cases: in vivo
[1] = test system: oilseed rape (Brassica napus); experiment: Test C preemergence, plant response rating; conditions: Preemergence
How it was run: (§1)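 Pre-emergence: seeds sown in loam soil–sand blend or silt loam and sprayed with test chemicals in a non-phytotoxic solvent mixture with surfactant. Post-emergence: plants 2 to 18 cm (1- to 4-leaf stage) in peat-based potting medium, same formulation. Greenhouse 13 to 15 d; visual rating 0 (no effect) to 100 (complete control) versus controls.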

[2] = test system: waterhemp (common waterhemp, Amaranthus rudis); experiment: Test C preemergence, plant response rating; conditions: Preemergence
How it was run: as §1

[3] = test system: blackgrass (Alopecurus myosuroides); experiment: Test C preemergence, plant response rating; conditions: Preemergence
How it was run: as §1

[4] = test system: ragweed (common ragweed, Ambrosia elatior); experiment: Test C preemergence, plant response rating; conditions: Preemergence
How it was run: as §1

[5] = test system: wheat (winter wheat, Triticum aestivum); experiment: Test C preemergence, plant response rating; conditions: Preemergence
How it was run: as §1

[6] = test system: lambsquarters (Chenopodium album); experiment: Test C preemergence, plant response rating; conditions: Preemergence
How it was run: as §1

[7] = test system: ryegrass, Italian (Italian ryegrass, Lolium multiflorum); experiment: Test C preemergence, plant response rating; conditions: Preemergence
How it was run: as §1

[8] = test system: soybean (Glycine max); experiment: Test C preemergence, plant response rating; conditions: Preemergence
How it was run: as §1

[9] = test system: corn (Zea mays); experiment: Test C preemergence, plant response rating; conditions: Preemergence
How it was run: as §1

[10] = test system: nutsedge, yellow (yellow nutsedge, Cyperus esculentus); experiment: Test C preemergence, plant response rating; conditions: Preemergence
How it was run: as §1

[11] = test system: morningglory (Ipomoea coccinea); experiment: Test C preemergence, plant response rating; conditions: Preemergence
How it was run: as §1

[12] = test system: velvetleaf (Abutilon theophrasti); experiment: Test C preemergence, plant response rating; conditions: Preemergence
How it was run: as §1

[13] = test system: foxtail, giant (giant foxtail, Setaria faberii); experiment: Test C preemergence, plant response rating; conditions: Preemergence
How it was run: as §1

[14] = test system: crabgrass, large (large crabgrass, Digitaria sanguinalis); experiment: Test C preemergence, plant response rating; conditions: Preemergence
How it was run: as §1

[15] = test system: sedge, umbrella (small-flower umbrella sedge, Cyperus difformis); experiment: Test B flooded paddy test, plant response rating; conditions: 250 g ai/ha; Flood; scale of 0 to 100 where 0 is no effect and 100 is complete control; 13 to 15 days
How it was run: (§2)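 Under a constant 3 cm flood, test compounds went directly into the paddy water. Following 13 to 15 days of greenhouse growth, treated species and controls were compared by eye.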

[16] = test system: rice (Oryza sativa); experiment: Test B flooded paddy test, plant response rating; conditions: 250 g ai/ha; Flood; scale of 0 to 100 where 0 is no effect and 100 is complete control; 13 to 15 days
How it was run: as §2

[17] = test system: barnyardgrass (Echinochloa crus-galli); experiment: Test B flooded paddy test, plant response rating; conditions: 250 g ai/ha; Flood; scale of 0 to 100 where 0 is no effect and 100 is complete control; 13 to 15 days
How it was run: as §2

SMILES: O=C(OCCC(F)(F)F)c1c(Br)cccc1Oc1ncc(Br)cn1 [Compound 33]
- Plant response rating, Oilseed Rape ([1]; 125 g ai/ha, scale of 0 to 100): 100
- Plant response rating, Oilseed Rape ([1]; 16 g ai/ha, scale 0 to 100): 50
- Plant response rating, Oilseed Rape ([1]; 31 g ai/ha, scale 0 to 100): 80
- Plant response rating, Oilseed Rape ([1]; 62 g ai/ha, scale 0 to 100): 85
- Plant response rating, Waterhemp ([2]; 125 g ai/ha, scale of 0 to 100): 100
- Plant response rating, Waterhemp ([2]; 16 g ai/ha, scale 0 to 100): 100
- Plant response rating, Waterhemp ([2]; 31 g ai/ha, scale 0 to 100): 100
- Plant response rating, Waterhemp ([2]; 62 g ai/ha, scale 0 to 100): 100
- Plant response rating, Blackgrass ([3]; 62 g ai/ha, scale of 0 to 100): 70
- Plant response rating, Blackgrass ([3]; 125 g ai/ha, scale of 0 to 100): 90
- Plant response rating, Blackgrass ([3]; 16 g ai/ha, scale 0 to 100): 0
- Plant response rating, Blackgrass ([3]; 31 g ai/ha, scale 0 to 100): 10
- Plant response rating, Ragweed ([4]; 125 g ai/ha, scale of 0 to 100): 50
- Plant response rating, Ragweed ([4]; 16 g ai/ha, scale 0 to 100): 55
- Plant response rating, Ragweed ([4]; 31 g ai/ha, scale 0 to 100): 35
- Plant response rating, Ragweed ([4]; 62 g ai/ha, scale 0 to 100): 40
- Plant response rating, Wheat ([5]; 125 g ai/ha, scale of 0 to 100): 5
- Plant response rating, Wheat ([5]; 16 g ai/ha, scale 0 to 100): 0
- Plant response rating, Wheat ([5]; 31 g ai/ha, scale 0 to 100): 0
- Plant response rating, Wheat ([5]; 62 g ai/ha, scale 0 to 100): 0
- Plant response rating, Lambsquarters ([6]; 125 g ai/ha, scale of 0 to 100): 85
- Plant response rating, Lambsquarters ([6]; 16 g ai/ha, scale 0 to 100): 25
- Plant response rating, Lambsquarters ([6]; 31 g ai/ha, scale 0 to 100): 60
- Plant response rating, Lambsquarters ([6]; 62 g ai/ha, scale 0 to 100): 80
- Plant response rating, Ryegrass, Italian ([7]; 125 g ai/ha, scale of 0 to 100): 85
- Plant response rating, Ryegrass, Italian ([7]; 16 g ai/ha, scale 0 to 100): 0
- Plant response rating, Ryegrass, Italian ([7]; 31 g ai/ha, scale 0 to 100): 30
- Plant response rating, Ryegrass, Italian ([7]; 62 g ai/ha, scale 0 to 100): 30
- Plant response rating, Soybean ([8]; 125 g ai/ha, scale of 0 to 100): 30
- Plant response rating, Soybean ([8]; 16 g ai/ha, scale 0 to 100): 15
- Plant response rating, Corn ([9]; 62 g ai/ha, scale of 0 to 100): 10
- Plant response rating, Corn ([9]; 125 g ai/ha, scale of 0 to 100): 10
- Plant response rating, Corn ([9]; 16 g ai/ha, scale 0 to 100): 0
- Plant response rating, Corn ([9]; 31 g ai/ha, scale 0 to 100): 0
- Plant response rating, Nutsedge, Yellow ([10]; 125 g ai/ha, scale of 0 to 100): 5
- Plant response rating, Nutsedge, Yellow ([10]; 16 g ai/ha, scale 0 to 100): 0
- Plant response rating, Nutsedge, Yellow ([10]; 31 g ai/ha, scale 0 to 100): 0
- Plant response rating, Nutsedge, Yellow ([10]; 62 g ai/ha, scale 0 to 100): 5
- Plant response rating, Morningglory ([11]; 125 g ai/ha, scale of 0 to 100): 40
- Plant response rating, Morningglory ([11]; 16 g ai/ha, scale 0 to 100): 0
- Plant response rating, Morningglory ([11]; 31 g ai/ha, scale 0 to 100): 0
- Plant response rating, Morningglory ([11]; 62 g ai/ha, scale 0 to 100): 25
- Plant response rating, Velvetleaf ([12]; 125 g ai/ha, scale of 0 to 100): 100
- Plant response rating, Velvetleaf ([12]; 16 g ai/ha, scale 0 to 100): 5
- Plant response rating, Velvetleaf ([12]; 31 g ai/ha, scale 0 to 100): 30
- Plant response rating, Velvetleaf ([12]; 62 g ai/ha, scale 0 to 100): 55
- Plant response rating, Foxtail, Giant ([13]; 62 g ai/ha, scale of 0 to 100): 98
- Plant response rating, Foxtail, Giant ([13]; 125 g ai/ha, scale of 0 to 100): 100
- Plant response rating, Foxtail, Giant ([13]; 16 g ai/ha, scale 0 to 100): 60
- Plant response rating, Foxtail, Giant ([13]; 31 g ai/ha, scale 0 to 100): 95
- Plant response rating, Crabgrass, Large ([14]; 62 g ai/ha, scale of 0 to 100): 100
- Plant response rating, Crabgrass, Large ([14]; 125 g ai/ha, scale of 0 to 100): 100
- Plant response rating, Crabgrass, Large ([14]; 16 g ai/ha, scale 0 to 100): 75
- Plant response rating, Crabgrass, Large ([14]; 31 g ai/ha, scale 0 to 100): 98
- Plant response rating, Sedge, Umbrella [15]: 95
- Plant response rating, Rice [16]: 0
- Plant response rating, Barnyardgrass [17]: 0
